Measured values reported in ChEMBL document CHEMBL5579809, “Exploration of bromodomain ligand-linker conjugation sites for efficient CBP/p300 heterobifunctional degrader activity” (Bioorg Med Chem Lett, 2024).
Calls of active or inactive are those of the source. The rule behind the calls is not given here.

Tests used:
[1] = molecular target: T1, Protein cereblon/Histone acetyltransferase p300 (Homo sapiens) (UniProt Q09472+Q96SW2); experiment: PROTAC activity at CRBN/HiBiT-tagged p300 in human HAP1 cells assessed as induction of p300 degradation by measuring degradation rate at 100 nM measured over 24 hrs by luminescence based analysis; type: cell-based
[2] = molecular target: T1, Protein cereblon/Histone acetyltransferase p300 (Homo sapiens); experiment: PROTAC activity at CRBN/HiBiT-tagged p300 in human HAP1 cells assessed as induction of p300 degradation by measuring maximal efficacy at 100 nM measured over 24 hrs by luminescence based analysis relative to control; type: cell-based
[3] = molecular target: T2, Protein cereblon/CREB-binding protein (Homo sapiens) (UniProt Q92793+Q96SW2); experiment: PROTAC activity at CRBN/HiBiT-tagged CBP in human HAP1 cells assessed as induction of CBP degradation by measuring degradation rate at 1000 nM measured over 24 hrs by luminescence based analysis; type: cell-based
[4] = molecular target: T1, Protein cereblon/Histone acetyltransferase p300 (Homo sapiens); experiment: PROTAC activity at CRBN/HiBiT-tagged p300 in human HAP1 cells assessed as induction of p300 degradation by measuring degradation rate at 0.1 nM measured over 24 hrs by luminescence based analysis; type: cell-based
[5] = molecular target: T1, Protein cereblon/Histone acetyltransferase p300 (Homo sapiens); experiment: PROTAC activity at CRBN/HiBiT-tagged p300 in human HAP1 cells assessed as induction of p300 degradation by measuring maximal efficacy at 0.1 nM measured over 24 hrs by luminescence based analysis relative to control; type: cell-based
[6] = molecular target: T1, Protein cereblon/Histone acetyltransferase p300 (Homo sapiens); experiment: PROTAC activity at CRBN/HiBiT-tagged p300 in human HAP1 cells assessed as induction of p300 degradation by measuring degradation rate at 1 nM measured over 24 hrs by luminescence based analysis; type: cell-based
[7] = molecular target: T1, Protein cereblon/Histone acetyltransferase p300 (Homo sapiens); experiment: PROTAC activity at CRBN/HiBiT-tagged p300 in human HAP1 cells assessed as total cumulative degradation by measuring AUC at 10 nM measured over 24 hrs by luminescence based analysis; type: cell-based
[8] = molecular target: T2, Protein cereblon/CREB-binding protein (Homo sapiens); experiment: PROTAC activity at CRBN/HiBiT-tagged CBP in human HAP1 cells assessed as induction of CBP degradation by measuring maximal efficacy at 10 nM measured over 24 hrs by luminescence based analysis relative to control; type: cell-based
[9] = molecular target: T2, Protein cereblon/CREB-binding protein (Homo sapiens); experiment: PROTAC activity at CRBN/HiBiT-tagged CBP in human HAP1 cells assessed as induction of CBP degradation by measuring degradation rate at 100 nM measured over 24 hrs by luminescence based analysis; type: cell-based
[10] = molecular target: T1, Protein cereblon/Histone acetyltransferase p300 (Homo sapiens); experiment: PROTAC activity at CRBN/HiBiT-tagged p300 in human HAP1 cells assessed as total cumulative degradation by measuring AUC at 100 nM measured over 24 hrs by luminescence based analysis; type: cell-based
[11] = molecular target: T2, Protein cereblon/CREB-binding protein (Homo sapiens); experiment: PROTAC activity at CRBN/HiBiT-tagged CBP in human HAP1 cells assessed as total cumulative degradation by measuring AUC at 0.01 nM measured over 24 hrs by luminescence based analysis; type: cell-based
[12] = molecular target: T2, Protein cereblon/CREB-binding protein (Homo sapiens); experiment: PROTAC activity at CRBN/HiBiT-tagged CBP in human HAP1 cells assessed as total cumulative degradation by measuring AUC at 0.1 nM measured over 24 hrs by luminescence based analysis; type: cell-based
[13] = molecular target: T2, Protein cereblon/CREB-binding protein (Homo sapiens); experiment: PROTAC activity at CRBN/HiBiT-tagged CBP in human HAP1 cells assessed as induction of CBP degradation by measuring maximal efficacy at 0.1 nM measured over 24 hrs by luminescence based analysis relative to control; type: cell-based
[14] = molecular target: T1, Protein cereblon/Histone acetyltransferase p300 (Homo sapiens); experiment: PROTAC activity at CRBN/HiBiT-tagged p300 in human HAP1 cells assessed as total cumulative degradation by measuring AUC at 1 nM measured over 24 hrs by luminescence based analysis; type: cell-based
[15] = molecular target: T2, Protein cereblon/CREB-binding protein (Homo sapiens); experiment: PROTAC activity at CRBN/HiBiT-tagged CBP in human HAP1 cells assessed as total cumulative degradation by measuring AUC at 1 nM measured over 24 hrs by luminescence based analysis; type: cell-based
[16] = molecular target: T2, Protein cereblon/CREB-binding protein (Homo sapiens); experiment: PROTAC activity at CRBN/HiBiT-tagged CBP in human HAP1 cells assessed as induction of CBP degradation by measuring degradation rate at 1 nM measured over 24 hrs by luminescence based analysis; type: cell-based
[17] = molecular target: T1, Protein cereblon/Histone acetyltransferase p300 (Homo sapiens); experiment: PROTAC activity at CRBN/HiBiT-tagged p300 in human HAP1 cells assessed as induction of p300 degradation by measuring degradation rate at 10 nM measured over 24 hrs by luminescence based analysis; type: cell-based
[18] = molecular target: T2, Protein cereblon/CREB-binding protein (Homo sapiens); experiment: PROTAC activity at CRBN/HiBiT-tagged CBP in human HAP1 cells assessed as induction of CBP degradation by measuring maximal efficacy at 1 nM measured over 24 hrs by luminescence based analysis relative to control; type: cell-based
[19] = molecular target: T2, Protein cereblon/CREB-binding protein (Homo sapiens); experiment: PROTAC activity at CRBN/HiBiT-tagged CBP in human HAP1 cells assessed as total cumulative degradation by measuring AUC at 10 nM measured over 24 hrs by luminescence based analysis; type: cell-based
[20] = molecular target: T1, Protein cereblon/Histone acetyltransferase p300 (Homo sapiens); experiment: PROTAC activity at CRBN/HiBiT-tagged p300 in human HAP1 cells assessed as total cumulative degradation by measuring AUC at 0.01 nM measured over 24 hrs by luminescence based analysis; type: cell-based
[21] = molecular target: T2, Protein cereblon/CREB-binding protein (Homo sapiens); experiment: PROTAC activity at CRBN/HiBiT-tagged CBP in human HAP1 cells assessed as induction of CBP degradation by measuring degradation rate at 10 nM measured over 24 hrs by luminescence based analysis; type: cell-based
[22] = molecular target: T2, Protein cereblon/CREB-binding protein (Homo sapiens); experiment: PROTAC activity at CRBN/HiBiT-tagged CBP in human HAP1 cells assessed as induction of CBP degradation by measuring maximal efficacy at 100 nM measured over 24 hrs by luminescence based analysis relative to control; type: cell-based
[23] = molecular target: T2, Protein cereblon/CREB-binding protein (Homo sapiens); experiment: PROTAC activity at CRBN/HiBiT-tagged CBP in human HAP1 cells assessed as induction of CBP degradation by measuring maximal efficacy at 1000 nM measured over 24 hrs by luminescence based analysis relative to control; type: cell-based
[24] = molecular target: T1, Protein cereblon/Histone acetyltransferase p300 (Homo sapiens); experiment: PROTAC activity at CRBN/HiBiT-tagged p300 in human HAP1 cells assessed as total cumulative degradation by measuring AUC at 0.1 nM measured over 24 hrs by luminescence based analysis; type: cell-based
[25] = molecular target: T1, Protein cereblon/Histone acetyltransferase p300 (Homo sapiens); experiment: PROTAC activity at CRBN/HiBiT-tagged p300 in human HAP1 cells assessed as total cumulative degradation by measuring AUC at 1000 nM measured over 24 hrs by luminescence based analysis; type: cell-based
[26] = molecular target: T2, Protein cereblon/CREB-binding protein (Homo sapiens); experiment: Binding affinity to recombinant CRBN/CBP bromodomain (unknown origin) assessed as ternary complex formation at 1 to 1000 nM by Alphascreen-based proximity assay; type: protein assay; settings: dose 1-1000 nM
[27] = molecular target: T2, Protein cereblon/CREB-binding protein (Homo sapiens); experiment: PROTAC activity at CRBN/HiBiT-tagged CBP in human HAP1 cells assessed as induction of CBP degradation by measuring degradation rate at 0.1 nM measured over 24 hrs by luminescence based analysis; type: cell-based
[28] = molecular target: T1, Protein cereblon/Histone acetyltransferase p300 (Homo sapiens); experiment: Binding affinity to recombinant CRBN/p300 bromodomain (unknown origin) assessed as ternary complex formation at 1 to 1000 nM by Alphascreen-based proximity assay; type: protein assay; settings: dose 1-1000 nM
[29] = molecular target: Protein cereblon/Bromodomain-containing protein 4 (Homo sapiens) (UniProt O60885+Q96SW2); experiment: PROTAC activity at CRBN/HiBiT-tagged BRD4 in human HAP1 cells assessed as induction of BRD4 degradation measured over 24 hrs by luminescence based analysis; type: cell-based
[30] = molecular target: T1, Protein cereblon/Histone acetyltransferase p300 (Homo sapiens); experiment: PROTAC activity at CRBN/HiBiT-tagged p300 in human HAP1 cells assessed as induction of p300 degradation by measuring maximal efficacy at 1000 nM measured over 24 hrs by luminescence based analysis relative to control; type: cell-based
[31] = molecular target: T2, Protein cereblon/CREB-binding protein (Homo sapiens); experiment: PROTAC activity at CRBN/HiBiT-tagged CBP in human HAP1 cells assessed as total cumulative degradation by measuring AUC at 100 nM measured over 24 hrs by luminescence based analysis; type: cell-based
[32] = molecular target: T1, Protein cereblon/Histone acetyltransferase p300 (Homo sapiens); experiment: PROTAC activity at CRBN/HiBiT-tagged p300 in human HAP1 cells assessed as induction of p300 degradation by measuring degradation rate at 1000 nM measured over 24 hrs by luminescence based analysis; type: cell-based
[33] = molecular target: T1, Protein cereblon/Histone acetyltransferase p300 (Homo sapiens); experiment: PROTAC activity at CRBN/HiBiT-tagged p300 in human HAP1 cells assessed as induction of p300 degradation by measuring maximal efficacy at 10 nM measured over 24 hrs by luminescence based analysis relative to control; type: cell-based
[34] = molecular target: T2, Protein cereblon/CREB-binding protein (Homo sapiens); experiment: PROTAC activity at CRBN/HiBiT-tagged CBP in human HAP1 cells assessed as total cumulative degradation by measuring AUC at 1000 nM measured over 24 hrs by luminescence based analysis; type: cell-based
[35] = molecular target: T1, Protein cereblon/Histone acetyltransferase p300 (Homo sapiens); experiment: PROTAC activity at CRBN/HiBiT-tagged p300 in human HAP1 cells assessed as induction of p300 degradation by measuring maximal efficacy at 1 nM measured over 24 hrs by luminescence based analysis relative to control; type: cell-based
[36] = molecular target: T2, Protein cereblon/CREB-binding protein (Homo sapiens); experiment: Binding affinity to recombinant CRBN/CBP bromodomain (unknown origin) assessed as ternary complex formation at 10 to 100 nM by Alphascreen-based proximity assay; type: protein assay; settings: dose 10-100 nM
[37] = molecular target: T1, Protein cereblon/Histone acetyltransferase p300 (Homo sapiens); experiment: Binding affinity to recombinant CRBN/p300 bromodomain (unknown origin) assessed as ternary complex formation at 10 to 100 nM by Alphascreen-based proximity assay; type: protein assay; settings: dose 10-100 nM

Chain of Protein cereblon/Bromodomain-containing protein 4 (Homo sapiens) (Q96SW2 whole entry, looked up, other chains not shown): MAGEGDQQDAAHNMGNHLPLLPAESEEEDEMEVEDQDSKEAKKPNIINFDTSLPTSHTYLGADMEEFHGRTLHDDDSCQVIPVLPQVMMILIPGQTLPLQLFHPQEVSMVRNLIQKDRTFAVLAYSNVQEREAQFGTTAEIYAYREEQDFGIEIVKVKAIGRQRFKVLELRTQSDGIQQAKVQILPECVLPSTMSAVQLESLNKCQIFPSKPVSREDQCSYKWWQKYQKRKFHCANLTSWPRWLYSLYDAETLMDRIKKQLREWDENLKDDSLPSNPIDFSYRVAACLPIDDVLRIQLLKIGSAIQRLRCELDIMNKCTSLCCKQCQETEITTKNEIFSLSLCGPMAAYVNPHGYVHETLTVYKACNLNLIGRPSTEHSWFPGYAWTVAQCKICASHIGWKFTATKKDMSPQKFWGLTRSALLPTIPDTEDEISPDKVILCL
T1 sequence (Q09472 2-2414 limits assumed): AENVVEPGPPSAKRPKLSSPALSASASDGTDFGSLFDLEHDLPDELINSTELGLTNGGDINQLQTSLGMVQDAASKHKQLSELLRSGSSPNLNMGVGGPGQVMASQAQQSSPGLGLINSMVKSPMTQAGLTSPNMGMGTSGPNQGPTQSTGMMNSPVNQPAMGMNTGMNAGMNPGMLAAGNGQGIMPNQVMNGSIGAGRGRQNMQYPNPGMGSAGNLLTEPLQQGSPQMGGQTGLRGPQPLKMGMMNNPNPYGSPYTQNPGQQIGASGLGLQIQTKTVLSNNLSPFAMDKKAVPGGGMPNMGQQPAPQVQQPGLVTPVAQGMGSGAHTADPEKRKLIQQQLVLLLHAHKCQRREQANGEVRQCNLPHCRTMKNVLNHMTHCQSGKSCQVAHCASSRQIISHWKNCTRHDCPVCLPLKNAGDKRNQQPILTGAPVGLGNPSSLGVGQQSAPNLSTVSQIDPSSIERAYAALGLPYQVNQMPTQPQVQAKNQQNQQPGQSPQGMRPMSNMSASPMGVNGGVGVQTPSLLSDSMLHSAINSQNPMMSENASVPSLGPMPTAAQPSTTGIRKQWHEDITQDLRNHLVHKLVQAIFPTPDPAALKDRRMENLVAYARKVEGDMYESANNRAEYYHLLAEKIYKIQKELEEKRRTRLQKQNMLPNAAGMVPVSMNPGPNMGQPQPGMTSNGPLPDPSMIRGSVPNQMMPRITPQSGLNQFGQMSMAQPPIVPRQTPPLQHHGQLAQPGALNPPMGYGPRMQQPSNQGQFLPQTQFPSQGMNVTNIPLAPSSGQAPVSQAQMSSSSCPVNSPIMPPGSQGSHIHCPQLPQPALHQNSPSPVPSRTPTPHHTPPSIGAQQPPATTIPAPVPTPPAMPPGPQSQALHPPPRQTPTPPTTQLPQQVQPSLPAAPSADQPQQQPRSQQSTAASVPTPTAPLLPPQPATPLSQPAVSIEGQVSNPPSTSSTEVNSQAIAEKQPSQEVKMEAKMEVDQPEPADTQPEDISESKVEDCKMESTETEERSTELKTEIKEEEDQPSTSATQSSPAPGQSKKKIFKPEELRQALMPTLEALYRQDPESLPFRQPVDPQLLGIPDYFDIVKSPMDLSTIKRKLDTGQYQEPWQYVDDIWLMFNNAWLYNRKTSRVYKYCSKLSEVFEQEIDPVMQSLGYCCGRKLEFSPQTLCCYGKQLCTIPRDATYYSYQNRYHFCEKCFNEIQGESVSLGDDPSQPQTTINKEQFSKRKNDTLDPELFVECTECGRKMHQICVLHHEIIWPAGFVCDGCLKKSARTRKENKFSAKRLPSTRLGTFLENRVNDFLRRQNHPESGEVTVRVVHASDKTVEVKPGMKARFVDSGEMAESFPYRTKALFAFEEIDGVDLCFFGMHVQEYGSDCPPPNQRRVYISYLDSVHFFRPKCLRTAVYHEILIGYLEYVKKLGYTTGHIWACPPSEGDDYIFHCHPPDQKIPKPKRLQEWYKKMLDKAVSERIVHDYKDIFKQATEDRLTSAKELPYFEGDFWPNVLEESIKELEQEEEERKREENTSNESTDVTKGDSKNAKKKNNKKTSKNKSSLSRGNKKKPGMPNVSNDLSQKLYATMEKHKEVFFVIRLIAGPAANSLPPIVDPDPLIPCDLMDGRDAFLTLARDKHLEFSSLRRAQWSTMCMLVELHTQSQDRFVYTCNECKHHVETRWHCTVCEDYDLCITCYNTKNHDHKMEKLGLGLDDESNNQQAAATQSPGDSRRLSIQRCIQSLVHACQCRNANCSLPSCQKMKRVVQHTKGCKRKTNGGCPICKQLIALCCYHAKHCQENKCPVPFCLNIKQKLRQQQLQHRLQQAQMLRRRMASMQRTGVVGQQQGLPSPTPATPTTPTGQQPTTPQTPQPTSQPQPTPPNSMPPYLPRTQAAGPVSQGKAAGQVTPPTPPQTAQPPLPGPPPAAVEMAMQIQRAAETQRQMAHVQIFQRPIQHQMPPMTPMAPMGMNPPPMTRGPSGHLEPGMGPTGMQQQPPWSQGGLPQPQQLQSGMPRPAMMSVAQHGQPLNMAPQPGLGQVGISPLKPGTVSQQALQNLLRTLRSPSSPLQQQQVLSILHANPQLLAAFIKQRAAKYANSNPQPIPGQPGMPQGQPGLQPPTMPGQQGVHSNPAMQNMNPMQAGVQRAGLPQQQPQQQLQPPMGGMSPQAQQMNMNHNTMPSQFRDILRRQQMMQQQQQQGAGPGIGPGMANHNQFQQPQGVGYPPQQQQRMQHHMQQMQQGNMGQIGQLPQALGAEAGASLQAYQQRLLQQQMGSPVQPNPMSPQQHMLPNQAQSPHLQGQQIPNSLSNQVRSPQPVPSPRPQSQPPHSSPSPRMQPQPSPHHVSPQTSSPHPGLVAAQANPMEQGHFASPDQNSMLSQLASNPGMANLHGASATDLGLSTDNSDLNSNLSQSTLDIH
T1 sequence (Q96SW2 whole entry partner): as the sequence (Q96SW2 whole entry, looked up, other chains not shown) above

Row | Activity [1] [h⁻¹] | Emax [2] [%] | Activity [3] [h⁻¹] | Activity [6] [h⁻¹] | AUC [7] | Emax [8] [%] | Activity [9] [h⁻¹] | AUC [10] | AUC [11] | AUC [12] | Emax [13] [%] | AUC [14] | AUC [15] | Activity [16] [h⁻¹] | Activity [17] [h⁻¹] | Emax [18] [%] | AUC [19] | AUC [20] | Activity [21] [h⁻¹] | Emax [22] [%] | SMILES | also measured
1 | 1 | 88 | 0.4 | 0.37 | 5.1 | 86 | 0.81 | 3.7 | 24.7 | 20.7 | 25 | 12.2 | 10.4 | 0.54 | 1 | 63 | 4.4 | 26.1 | 1.1 | 89 | CNC(=O)N1CCc2c(c(N3CCCc4cc(-c5cnn(C)c5)c(C(F)F)cc43)nn2C2CCN(C(=O)CCOCCOCCOCCOCCNc3ccc4c(c3)C(=O)N(C3CCC(=O)NC3=O)C4=O)CC2)C1 (stereo not drawn) | Activity [4]: 0.02 h⁻¹; Emax [5]: 27%; Emax [23]: 83%; AUC [24]: 21.7; AUC [25]: 4.8; Activity [26]: Active; Activity [27]: 0.12 h⁻¹; Activity [28]: Active; Activity [29]: inactive; Emax [30]: 86%; AUC [31]: 3.9; Activity [32]: 0.57 h⁻¹; Emax [33]: 83%; AUC [34]: 6.4; Emax [35]: 57%
2 | 1 | 88 | 0.32 | 0.41 | 5.2 | 85 | 0.83 | 3.9 | 24.1 | 20.8 | 20 | 12.3 | 10.7 | 0.63 | 1.3 | 61 | 4.4 | 26.5 | 1.3 | 88 | CNC(=O)N1CCc2c(c(N3CCCc4cc(-c5cnn(C)c5)c(C(F)(F)F)cc43)nn2C2CCN(C(=O)CCOCCOCCOCCOCCNc3ccc4c(c3)C(=O)N(C3CCC(=O)NC3=O)C4=O)CC2)C1 (stereo not drawn) | Activity [4]: 1 10^-4/hr; Emax [5]: 17%; Activity [36]: Active; Emax [23]: 80%; AUC [24]: 23.2; AUC [25]: 6; Activity [27]: 0.21 h⁻¹; Activity [37]: Active; Activity [29]: inactive; Emax [30]: 84%; AUC [31]: 4; Activity [32]: 0.42 h⁻¹; Emax [33]: 82%; AUC [34]: 7.4; Emax [35]: 56%
3 | 0.29 | 73 | 0.36 | 0.2 | 9.2 | 68 | 0.19 | 9.4 | 25.6 | 23.7 | 11 | 16.1 | 15.6 | 0.26 | 0.35 | 44 | 10.3 | 27.3 | 0.31 | 65 | CNC(=O)N1CCc2c(c(N3CCCc4cc(-c5cnn(C)c5)c(C(F)F)cc43)nn2C2CCN(C(=O)CCOCCNc3ccc4c(c3)C(=O)N(C3CCC(=O)NC3=O)C4=O)CC2)C1 (stereo not drawn) | Activity [36]: Active; Emax [23]: 64%; AUC [24]: 24.7; AUC [25]: 16.5; Activity [27]: 1.2 10^-4/hr; Activity [37]: Active; Activity [29]: inactive; Emax [30]: 58%; AUC [31]: 12.1; Activity [32]: 0.09 h⁻¹; Emax [33]: 71%; AUC [34]: 19.5; Emax [35]: 44%
